Measured values as given in US8003785B2 (Takeda Pharmaceutical Company Limited, priority 2008, dated 2011).

biological target: T1, PLK1 (Homo sapiens, UniProt P53350); experiment: Biochemical Characterization Assay: HTRF kinase assay, GST-PLK1 phosphorylation of GST-p53; conditions: GST-PLK1, GST-p53 substrate
T1 construct: Full-length, active GST-PLK1 is purified from Sf9 insect cells; made in house; host or cells: Sf9 insect cells
Method in brief: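 HTRF read-out of p53 phosphorylation: after EDTA stop, anti-phospho-p53 antibody bound 30 min at 37 °C in HEPES pH 7 buffer, with Eu-anti-rabbit/APC-anti-GST detection. Kinase step used full-length Sf9-expressed GST-PLK1 (3 ug/mL) and E. coli GST-p53 substrate, 35 min at 37 °C.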

T1 sequence (P53350 whole entry): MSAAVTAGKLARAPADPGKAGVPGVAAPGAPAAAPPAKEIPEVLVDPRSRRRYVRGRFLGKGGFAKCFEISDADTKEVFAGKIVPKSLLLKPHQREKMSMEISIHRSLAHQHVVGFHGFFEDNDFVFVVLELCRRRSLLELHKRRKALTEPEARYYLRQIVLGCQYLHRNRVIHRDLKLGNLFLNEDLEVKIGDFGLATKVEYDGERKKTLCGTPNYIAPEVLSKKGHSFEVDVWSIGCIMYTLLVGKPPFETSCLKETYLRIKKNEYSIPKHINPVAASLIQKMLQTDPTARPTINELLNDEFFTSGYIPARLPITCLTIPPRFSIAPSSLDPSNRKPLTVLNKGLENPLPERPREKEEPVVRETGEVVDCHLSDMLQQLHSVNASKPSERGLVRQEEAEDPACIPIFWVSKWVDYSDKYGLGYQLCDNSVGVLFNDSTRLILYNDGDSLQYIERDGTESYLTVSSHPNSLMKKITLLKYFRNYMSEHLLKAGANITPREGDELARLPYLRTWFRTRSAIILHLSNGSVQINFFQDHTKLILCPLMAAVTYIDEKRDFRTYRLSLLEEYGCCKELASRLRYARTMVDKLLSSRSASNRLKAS

Row | IC50 [nM] | SMILES
1 | 1 to 50 | CCN1CCC(NC(=O)c2ccc(Nc3ncc4c(n3)N(C3CCCCC3)CC(F)(F)C(=O)N4C)c(OC)c2)CC1 [Example I-255, 4-(9-cyclohexyl-7,7-difluoro-5-methyl-6-oxo-6,7,8,9-tetrahydro-5H-pyrimido[4,5-b][1,4]diazepin-2-ylamino)-N-(1-ethyl-piperidin-4-yl)-3-methoxy-benzamide]
2 | 1 to 50 | CN1C(=O)C(F)(F)CN(C2CCCCC2)c2nc(Nc3ccc(C(=O)O)cc3)ncc21 [Example I-256, 4-(9-cyclohexyl-7,7-difluoro-5-methyl-6-oxo-6,7,8,9-tetrahydro-5H-pyrimido[4,5-b][1,4]diazepin-2-ylamin)-benzoic acid]
3 | 1 to 50 | CN1C(=O)C(F)(F)CN(C2CCCCC2)c2nc(Nc3ccc(C(N)=O)cc3)ncc21 [Example I-257, 4-(9-cyclohexyl-7,7-difluoro-5-methyl-6-oxo-6,7,8,9-tetrahydro-5H-pyrimido[4,5-b][1,4]diazepin-2-ylamino)-benzamide]
4 | 1 to 50 | CNC(=O)c1ccc(Nc2ncc3c(n2)N(C2CCCCC2)CC(F)(F)C(=O)N3C)cc1 [Example I-258, 4-(9-cyclohexyl-7,7-difluoro-5-methyl-6-oxo-6,7,8,9-tetrahydro-5H-pyrimido[4,5-b][1,4]diazepin-2-ylamino)-N-methyl-benzamide]
5 | 1 to 50 | CN1C(=O)C(F)(F)CN(C2CCCCC2)c2nc(Nc3ccc(C(=O)NC4CCNCC4)cc3)ncc21 [Example I-260, 4-(9-cyclohexyl-7,7-difluoro-5-methyl-6-oxo-6,7,8,9-tetrahydro-5H-pyrimido[4,5-b][1,4]diazepin-2-ylamino)-N-piperidin-4-yl-benzamide]
6 | 1 to 50 | CCN1CCC(NC(=O)c2ccc(Nc3ncc4c(n3)N(C3CCCCC3)CC(F)(F)C(=O)N4C)cc2)CC1 [Example I-261, 4-(9-cyclohexyl-7,7-difluoro-5-methyl-6-oxo-6,7,8,9-tetrahydro-5H-pyrimido[4,5-b][1,4]diazepin-2-ylamino)-N-(1-ethyl-piperidin-4-yl)-benzamide]
7 | 1 to 50 | CN1CCC(NC(=O)c2ccc(Nc3ncc4c(n3)N(C3CCCCC3)CC(F)(F)C(=O)N4C)cc2)CC1 [Example I-262, 4-(9-cyclohexyl-7,7-difluoro-5-methyl-6-oxo-6,7,8,9-tetrahydro-5H-pyrimido[4,5-b][1,4]diazepin-2-ylamino)-N-(1-methyl-piperidin-4-yl)-benzamide]
8 | 1 to 50 | CN1C(=O)C(F)(F)CN(C2CCCCC2)c2nc(Nc3ccc(C(=O)NC4CCOCC4)cc3)ncc21 [Example I-263, 4-(9-cyclohexyl-7,7-difluoro-5-methyl-6-oxo-6,7,8,9-tetrahydro-5H-pyrimido[4,5-b][1,4]diazepin-2-ylamino)-N-(tetrahydro-pyran-4-yl)-benzamide]
9 | 1 to 50 | CN(C)CCNC(=O)c1ccc(Nc2ncc3c(n2)N(C2CCCCC2)CC(F)(F)C(=O)N3C)cc1 [Example I-264, 4-(9-cyclohexyl-7,7-difluoro-5-methyl-6-oxo-6,7,8,9-tetrahydro-5H-pyrimido[4,5-b][1,4]diazepin-2-ylamino)-N-(2-dimethylamino-ethyl)-benzamide]
10 | 1 to 50 | CN(C)CCCNC(=O)c1ccc(Nc2ncc3c(n2)N(C2CCCCC2)CC(F)(F)C(=O)N3C)cc1 [Example I-265, 4-(9-cyclohexyl-7,7-difluoro-5-methyl-6-oxo-6,7,8,9-tetrahydro-5H-pyrimido[4,5-b][1,4]diazepin-2-ylamino)-N-(3-dimethylamino-propyl)-benzamide]

The remaining lines, values behind:

Row | SMILES | IC50 [nM]
11 | CCN1CCC(NC(=O)c2cc(F)c(Nc3ncc4c(n3)N(C3CCCC3)CC(F)(F)C(=O)N4C)cc2F)CC1 [Example I-234, 4-(9-cyclopentyl-7,7-difluoro-5-methyl-6-oxo-6,7,8,9-tetrahydro-5H-pyrimido[4,5-b][1,4]diazepin-2-ylamino)-N-(1-ethyl-piperidin-4-yl)-2,5-difluoro-benzamide] | 1 to 50
12 | CN1C(=O)C(F)(F)CN(C2CCCC2)c2nc(Nc3cc(F)c(C(=O)NC4CCOCC4)cc3F)ncc21 [Example I-235, 4-(9-cyclopentyl-7,7-difluoro-5-methyl-6-oxo-6,7,8,9-tetrahydro-5H-pyrimido[4,5-b][1,4]diazepin-2-ylamino)-2,5-difluoro-N-(tetrahydro-pyran-4-yl)-benzamide] | 1 to 50
13 | CN(C)CCNC(=O)c1cc(F)c(Nc2ncc3c(n2)N(C2CCCC2)CC(F)(F)C(=O)N3C)cc1F [Example I-236, 4-(9-cyclopentyl-7,7-difluoro-5-methyl-6-oxo-6,7,8,9-tetrahydro-5H-pyrimido[4,5-b][1,4]diazepin-2-ylamino)-N-(2-dimethylamino-ethyl)-2,5-difluoro-benzamide] | 1 to 50
14 | CN(C)CCCNC(=O)c1cc(F)c(Nc2ncc3c(n2)N(C2CCCC2)CC(F)(F)C(=O)N3C)cc1F [Example I-237, 4-(9-cyclopentyl-7,7-difluoro-5-methyl-6-oxo-6,7,8,9-tetrahydro-5H-pyrimido[4,5-b][1,4]diazepin-2-ylamino)-N-(3-dimethylamino-propyl)-2,5-difluoro-benzamide] | 1 to 50
15 | CNC(=O)c1cc(F)c(Nc2ncc3c(n2)N(C2CCCC2)CC(F)(F)C(=O)N3C)cc1F [Example I-238, 4-(9-cyclopentyl-7,7-difluoro-5-methyl-6-oxo-6,7,8,9-tetrahydro-5H-pyrimido[4,5-b][1,4]diazepin-2-ylamino)-2,5-difluoro-N-methyl-benzamide] | 1 to 50
16 | CN1C(=O)C(F)(F)CN(C2CCCC2)c2nc(Nc3cc(F)c(C(=O)NC4CCN(C(=O)OC(C)(C)C)CC4)cc3F)ncc21 [Example I-239, 4-[4-(9-cyclopentyl-7,7-difluoro-5-methyl-6-oxo-6,7,8,9-tetrahydro-5H-pyrimido[4,5-b][1,4]diazepin-2-ylamino)-2,5-difluoro-benzoylamino]-piperidine-1-carboxylic acid tert-butyl ester] | 51 to 500
17 | CN1C(=O)C(F)(F)CN(C2CCCC2)c2nc(Nc3cc(F)c(C(=O)NC4CCNCC4)cc3F)ncc21 [Example I-240, 4-(9-cyclopentyl-7,7-difluoro-5-methyl-6-oxo-6,7,8,9-tetrahydro-5H-pyrimido[4,5-b][1,4]diazepin-2-ylamino)-2,5-difluoro-N-piperidin-4-yl-benzamide] | 1 to 50
18 | CN1C(=O)C(F)(F)CN(C2CCCC2)c2nc(Nc3cc(F)c(C(N)=O)cc3F)ncc21 [Example I-241, 4-(9-cyclopentyl-7,7-difluoro-5-methyl-6-oxo-6,7,8,9-tetrahydro-5H-pyrimido[4,5-b][1,4]diazepin-2-ylamino)-2,5-difluoro-benzamide] | 1 to 50
19 | CN1CCC(NC(=O)c2ccc(Nc3ncc4c(n3)N(C3CCCC3)CC(F)(F)C(=O)N4C)c(F)c2F)CC1 [Example I-243] | 1 to 50
20 | CCN1CCC(NC(=O)c2ccc(Nc3ncc4c(n3)N(C3CCCC3)CC(F)(F)C(=O)N4C)c(F)c2F)CC1 [Example I-244] | 1 to 50
21 | CNC(=O)c1ccc(Nc2ncc3c(n2)N(C2CCCC2)CC(F)(F)C(=O)N3C)c(F)c1F [Example I-245] | 1 to 50
22 | COc1cc(C(=O)O)ccc1Nc1ncc2c(n1)N(C1CCCCC1)CC(F)(F)C(=O)N2C [Example I-246, 4-(9-cyclohexyl-7,7-difluoro-5-methyl-6-oxo-6,7,8,9-tetrahydro-5H-pyrimido[4,5-b][1,4]diazepin-2-ylamino)-3-methoxy-benzoic acid] | 1 to 50
23 | COc1cc(C(=O)NC2CCN(C)CC2)ccc1Nc1ncc2c(n1)N(C1CCCCC1)CC(F)(F)C(=O)N2C [Example I-247, 4-(9-cyclohexyl-7,7-difluoro-5-methyl-6-oxo-6,7,8,9-tetrahydro-5H-pyrimido[4,5-b][1,4]diazepin-2-ylamino)-3-methoxy-N-(1-methyl-piperidin-4-yl)-benzamide] | 1 to 50
24 | COc1cc(C(N)=O)ccc1Nc1ncc2c(n1)N(C1CCCCC1)CC(F)(F)C(=O)N2C [Example I-248, 4-(9-cyclohexyl-7,7-difluoro-5-methyl-6-oxo-6,7,8,9-tetrahydro-5H-pyrimido[4,5-b][1,4]diazepin-2-ylamino)-3-methoxy-benzamide] | 1 to 50
25 | CNC(=O)c1ccc(Nc2ncc3c(n2)N(C2CCCCC2)CC(F)(F)C(=O)N3C)c(OC)c1 [Example I-249, 4-(9-cyclohexyl-7,7-difluoro-5-methyl-6-oxo-6,7,8,9-tetrahydro-5H-pyrimido[4,5-b][1,4]diazepin-2-ylamino)-3-methoxy-N-methyl-benzamide] | 1 to 50
26 | COc1cc(C(=O)NC2CCNCC2)ccc1Nc1ncc2c(n1)N(C1CCCCC1)CC(F)(F)C(=O)N2C [Example I-251, 4-(9-cyclohexyl-7,7-difluoro-5-methyl-6-oxo-6,7,8,9-tetrahydro-5H-pyrimido[4,5-b][1,4]diazepin-2-ylamino)-3-methoxy-N-piperidin-4-yl-benzamide] | 1 to 50
27 | COc1cc(C(=O)NC2CCOCC2)ccc1Nc1ncc2c(n1)N(C1CCCCC1)CC(F)(F)C(=O)N2C [Example I-252, 4-(9-cyclohexyl-7,7-difluoro-5-methyl-6-oxo-6,7,8,9-tetrahydro-5H-pyrimido[4,5-b][1,4]diazepin-2-ylamino)-3-methoxy-N-(tetrahydro-pyran-4-yl)-benzamide] | 1 to 50
28 | COc1cc(C(=O)NCCN(C)C)ccc1Nc1ncc2c(n1)N(C1CCCCC1)CC(F)(F)C(=O)N2C [Example I-253, 4-(9-cyclohexyl-7,7-difluoro-5-methyl-6-oxo-6,7,8,9-tetrahydro-5H-pyrimido[4,5-b][1,4]diazepin-2-ylamino)-N-(2-dimethylamino-ethyl)-3-methoxy-benzamide] | 1 to 50
29 | COc1cc(C(=O)NCCCN(C)C)ccc1Nc1ncc2c(n1)N(C1CCCCC1)CC(F)(F)C(=O)N2C [Example I-254, 4-(9-cyclohexyl-7,7-difluoro-5-methyl-6-oxo-6,7,8,9-tetrahydro-5H-pyrimido[4,5-b][1,4]diazepin-2-ylamino)-N-(3-dimethylamino-propyl)-3-methoxy-benzamide] | 1 to 50
